Measured values as given in patent publication US10308686B2, “Gamma-AApeptides with potent and broad-spectrum antimicrobial activity” (priority 2012, dated 2019).
Values after ≈ are worked out from the molar mass of the structure shown. Like-named read-outs stand apart in the source and are kept apart here.

Assays:
[1] = system: human red blood cells (hRBC's); assay: Hemolysis assay; format: cell-based
Experimental: Freshly drawn human red blood cells (hRBC's) with additive K2 EDTA (spray-dried) were washed with PBS buffer several times and centrifuged at 1000 g for 10 min until a clear supernatant was observed. The hRBC's were resuspended in 1×PBS to get a 5% v/v suspension. Two-fold serial dilutions of γ-AApeptides dissolved in 1×PBS from 250 μg/ml through 1.6 μg/ml were added to a sterile 96-well plate to make up a total volume of 50 μL in each well. Then 50 μL of 5% v/v hRBC solution was added to make up a total volume of 100 μL in each well. The 0% hemolysis point and 100% hemolysis point were determined in 1×PBS and 0.2% Triton-X-100, respectively (Patch et al., 2003). The plate was then incubated at 37° C. for 1 h and centrifuged at 3500 rpm for 10 min. The supernatant (30 μL) was diluted with 100 μL of 1×PBS and absorption was detected by measuring the optical density at 360 nm by Biotek Synergy HT microtiter plate reader. % hemolysis was determined by the following equation: % hemolysis=(Abssample−AbsPBS)/(AbsTriton−AbsPBS)×100 H50 is the concentration of γ-AApeptide amphiphiles at which 50% hemolysis was observed. The highest concentration tested in the hemolytic assay was 500 μg/ml. 7. Fluorescence Microscopy
The sequences shown in FIG. 12 were also evaluated via hemolytic assays. Freshly drawn human red blood cells (hRBC's) with additive K2 EDTA (spray-dried) were washed with PBS buffer several times and centrifuged at 1000 g for 10 min until a clear supernatant was observed. The hRBC's were resuspended in 1×PBS to get a 5% v/v suspension. Two-fold serial dilutions of lipidated γ-AApeptides dissolved in 1×PBS from 1 mg/ml through 6.3 μg/ml were added to sterile 96-well plates to make up a total volume of 50 μL in each well. Then 50 μL of 5% v/v hRBC solution was added to make up a total volume of 100 μL in each well. The 0% hemolysis point and 100% hemolysis point were determined in 1×PBS and 0.2% Triton-X-100, respectively (Patch et al., 2003). The plate was then incubated at 37° C. for 1 h and centrifuged at 3500 rpm for 10 min. The supernatant (30 μL) was diluted with 100 μL of 1×PBS and absorption was detected by measuring the optical density at 360 nm with a Biotek Synergy HT microtiter plate reader. % hemolysis was determined by the following equation: % hemolysis=(Abs sample−Abs PBS)/(Abs Triton−Abs PBS)×100

[2] = system: C. albicans (ATCC 10231); details: ATCC 10231
[3] = system: multi-drug resistant S. epidermidis (RP62A); details: for MIC, S. epidermidis (multi-drug resistant): Table 1
[4] = system: methicillin-resistant S. aureus (ATCC 33592); details: for MIC, S. aureus (methicillin-resistant): Table 1
[5] = system: vancomycin-resistant E. faecalis (ATCC 700802); details: for MIC, E. faecalis (vancomycin-resistant): Table 1
[6] = system: B. subtilis (BR151)
[7] = system: multi-drug resistant P. aeruginosa ATCC 27853
[8] = system: K. pneumoniae (ATCC 13383)
[9] = system: E. coli (JM109)
[10] = Table 5, first value of H10/H50
[11] = Table 5, second value of H10/H50

Work on `CC(C)CCC(=O)N1CC(=O)N[C@@H](CCCCN)CN(C(=O)CCc2ccccc2)CC(=O)N[C@@H](Cc2ccccc2)CN(CC(N)=O)C(=O)CCC(=O)N[C@@H](CCCCN)CN(C(=O)CCc2ccccc2)CC(=O)N[C@@H](Cc2ccccc2)CN(C(=O)CCC(C)C)CC(=O)N[C@@H](CCCCN)CN(C(=O)CCc2ccccc2)CC(=O)N[C@@H](CCCCN)CN(C(=O)CCc2ccccc2)CC(=O)N[C@@H](Cc2ccccc2)C1` [HW-B-12] yielded a Hemolysis H10 [1] of 150 µg/mL, a Hemolysis H50 [1] of 450 µg/mL and an MIC, Fungus C. albicans [2] of 5 µg/mL (≈ 2.4 µM). For the same molecule, the MIC, S. epidermidis (MRSE) ([3]; Table 5) was 5 µg/mL (≈ 2.4 µM), the MIC, S. aureus (MRSA) ([4]; Table 5) was 6 µg/mL (≈ 2.88 µM) and the MIC, E. faecalis (VREF) ([5]; Table 5) was 8 µg/mL (≈ 3.85 µM). The MIC, B. subtilis [6] was 5 µg/mL (≈ 2.4 µM), the MIC, P. aeruginosa ([7]; ATCC 27853) was over 50 µg/mL and the MIC, K. pneumoniae [8] was 5 µg/mL (≈ 2.4 µM).
With `CCCCCCCCCCCCCCCC(=O)N[C@@H](C)CN(CC(=O)N[C@@H](C)CN(CC(=O)N[C@@H](CC(C)C)CN(CC(=O)N[C@@H](CC(C)C)CN(CC(=O)N[C@@H](CC(C)C)CN(CC(N)=O)C(=O)CCCN)C(=O)CCCN)C(=O)CCCN)C(C)=O)C(C)=O` [Sequence 6] the “Hemolysis HC10” value ([1]; red cells of human) was 60 µg/mL, the “Hemolysis HC50” value ([1]; red cells of human) was over 500 µg/mL and the “MIC, Gram positive S. epidermidis” value ([3]; Table 7) was 4 µg/mL (≈ 3.1 µM). The “MIC, Gram positive S. aureus” value ([4]; Table 7) was 4 µg/mL (≈ 3.1 µM), the “MIC, Gram positive E. faecalis” value ([5]; Table 7) was 5 µg/mL (≈ 3.87 µM) and the “MIC, Gram positive B. subtilis” value [6] was 2.5 µg/mL (≈ 1.94 µM). The “MIC, Gram negative P. aeruginosa” value ([7]; ATCC 27853) was 5 µg/mL (≈ 3.87 µM), the “MIC, Gram negative E. coli” value [9] was 2.5 µg/mL (≈ 1.94 µM) and the “MIC, Gram negative K. pneumoniae” value [8] was 5 µg/mL (≈ 3.87 µM).
In the case of `NCCCC[C@H](N)CN(CC(=O)N[C@@H](CCCCN)CN(CC(=O)N[C@@H](CCCCN)CN(CC(=O)N[C@@H](CCCCN)CN(CC(=O)N[C@@H](CCCCN)CN(CC(N)=O)C(=O)CCc1ccccc1)C(=O)CCc1ccccc1)C(=O)CCc1ccccc1)C(=O)CCc1ccccc1)C(=O)CCc1ccccc1` [γ2], the “MIC, S. epidermidis (multi-drug resistant)” value [3] is reported as over 100 µg/mL, the “MIC, S. aureus (methicillin-resistant)” value [4] is reported as over 100 µg/mL and the “MIC, E. faecalis (vancomycin-resistant)” value [5] is reported as over 100 µg/mL. For the same molecule, the “MIC, B. subtilis” value [6] was 5 µg/mL (≈ 3.26 µM), the “MIC, E. coli” value [9] was 25 µg/mL (≈ 16.3 µM) and the “MIC, K. pneumoniae (causing pneumonia)” value [8] was over 100 µg/mL.
`CC(C)CCC(=O)N1CC(=O)N[C@@H](Cc2ccccc2)CN(C(=O)CCC(C)C)CC(=O)N[C@@H](Cc2ccccc2)CN(C(=O)CCC(C)C)CC(=O)N[C@@H](CCCCN)CN(C(=O)CCc2ccccc2)CC(=O)N[C@@H](CCCCN)CN(C(=O)CCc2ccccc2)CC(=O)N[C@@H](CCCCN)CN(C(=O)CCc2ccccc2)CC(=O)N[C@@H](Cc2ccccc2)CN(CC(N)=O)C(=O)CCC(=O)N[C@@H](Cc2ccccc2)C1` [HW-B-14] was tested, and the Hemolysis H10 [1, 10] was 45 µg/mL, the Hemolysis H50 [1, 11] was 300 µg/mL and the MIC, Fungus C. albicans [2] was 4 µg/mL (≈ 1.94 µM). It also gave an MIC, S. epidermidis (MRSE) ([3]; multi-drug resistant (RP62A)) of 2 µg/mL (≈ 0.969 µM), an MIC, S. aureus (MRSA) ([4]; ATCC 33592) of 3 µg/mL (≈ 1.45 µM) and an MIC, E. faecalis (VREF) ([5]; ATCC 700802) of 5 µg/mL (≈ 2.42 µM). For the same molecule, the MIC, K. pneumoniae [8] was 10 µg/mL (≈ 4.84 µM).
With `NCCCC[C@H](N)CN(CC(=O)N[C@@H](CCCCN)CN(CC(=O)N[C@@H](CCCCN)CN(CC(N)=O)C(=O)CCc1ccccc1)C(=O)CCc1ccccc1)C(=O)CCc1ccccc1` [γ1] the “MIC, S. epidermidis (multi-drug resistant)” value [3] was over 100 µg/mL, the “MIC, S. aureus (methicillin-resistant)” value [4] was over 100 µg/mL and the “MIC, E. faecalis (vancomycin-resistant)” value [5] was over 100 µg/mL. The “MIC, B. subtilis” value [6] was over 100 µg/mL, the “MIC, E. coli” value [9] was over 100 µg/mL and the “MIC, K. pneumoniae (causing pneumonia)” value [8] was over 100 µg/mL.
With `NCCCC[C@H]1CN(C(=O)CCc2ccccc2)CC(=O)N[C@@H](CCCCN)CN(C(=O)CCc2ccccc2)CC(=O)N[C@@H](CCCCN)CN(C(=O)CCc2ccccc2)CC(=O)N[C@@H](CCCCN)CN(C(=O)CCc2ccccc2)CC(=O)N[C@@H](Cc2ccccc2)CN(CC(N)=O)C(=O)CCC(=O)N1` [HW-B-3] the Hemolysis H10 [1, 10] was over 500 µg/mL, the Hemolysis H50 [1, 11] was over 500 µg/mL and the MIC, Fungus C. albicans [2] was over 50 µg/mL. It also gave an MIC, S. epidermidis (MRSE) ([3]; Table 5) of over 50 µg/mL, an MIC, S. aureus (MRSA) ([4]; Table 5) of over 50 µg/mL and an MIC, E. faecalis (VREF) ([5]; Table 5) of over 50 µg/mL. For the same molecule, the “MIC, B. subtilis” value [6] was 25000 to 50000 µg/mL, the MIC, P. aeruginosa ([7]; Table 5) was over 50 µg/mL and the MIC, K. pneumoniae [8] was over 50 µg/mL.
